This note sets out measurements from ChEMBL document CHEMBL6096649, “Enantiomeric C-6 fluorinated swainsonine derivatives as highly selective and potent inhibitors of α-mannosidase and α-l-rhamnosidase: Design, synthesis and structure-activity relationship study” (Eur J Med Chem, 2025).

Calls of active or inactive are those of the source. The rule behind the calls is not given here.

The species named for assay [1] is Homo sapiens. Kind of assay: Inhibition of human liver Alpha-mannosidase relative to control.
Assay [2] is filed under the species Rattus norvegicus. Kind of assay: Inhibition of rat intestinal Alpha-glucosidase using p-nitrophenyl glycoside as substrate assessed as p-nitrophenol release at 1000 uM by spectrometric analysis relative to control.
Assay [3] is filed under the species Sus scrofa. As to the kind of experiment: Inhibition of porcine kidney Alpha alpha-trehalase using p-nitrophenyl glycoside as substrate assessed as release of p-nitrophenol at 1000 uM by spectrometric analysis relative to control.
Assay [4] concerns the target Alpha-glucosidase (Saccharomyces cerevisiae S288c) (UniProt P53341+P38158+P07265). Kind of assay: Inhibition of yeast Alpha-glucosidase using p-nitrophenyl glycoside as substrate assessed as p-nitrophenol release at 1000 uM by spectrometric analysis relative to control. Format: protein assay.
The species named for assay [5] is Bos taurus. Kind of assay: Inhibition of bovine liver beta-galactosidase using p-nitrophenyl glycoside as substrate assessed as release of p-nitrophenol at 1000 uM by spectrometric analysis relative to control.
Assay [6] is filed under the species Bos taurus. As to the kind of experiment: Inhibition of bovine liver beta-glucuronidase using p-nitrophenyl glycoside as substrate assessed as release of p-nitrophenol at 1000 uM by spectrometric analysis relative to control.
Assay [7] concerns the target Alpha glucosidase (Homo sapiens) (UniProt O43451+P10253+P14410+Q2M2H8). As to the kind of experiment: Inhibition of human Alpha-glucosidase using p-nitrophenyl glycoside as substrate assessed as p-nitrophenol release at 1000 uM by spectrometric analysis relative to control. Format: protein assay.
For assay [8], the species on record is Bos taurus. Kind of assay: Inhibition of bovine liver beta-glucosidase using p-nitrophenyl glycoside as substrate assessed as release of p-nitrophenol at 1000 uM by spectrometric analysis relative to control.
Assay [9] has as its system Escherichia coli. As to the kind of experiment: Inhibition of Escherichia coli beta-glucuronidase using p-nitrophenyl glycoside as substrate assessed as release of p-nitrophenol at 1000 uM by spectrometric analysis relative to control.
For assay [10], the system named is Aspergillus niger. As to the kind of experiment: Inhibition of Aspergillus niger amyloglucosidase using p-nitrophenyl glycoside as substrate assessed as release of p-nitrophenol at 1000 uM by spectrometric analysis relative to control.
Assay [11] relates to CAKI-1. As to the kind of experiment: Cytotoxicity activity against human CAKI-1 cells incubated for 48 hrs by CCK-8 assay. Particulars: CAKI-1, 48 h. Format: functional, cell-based. A general note: Tetrazolium dyes change colour on reduction, which living cells bring about.
The target of assay [12] is Alpha-galactosidase (Coffea arabica) (UniProt Q42656). Kind of assay: Inhibition of coffee bean alpha-galactosidase using p-nitrophenyl glycoside as substrate assessed as release of p-nitrophenol at 1000 uM by spectrometric analysis relative to control.
Sequence of Alpha-galactosidase (Coffea arabica) (Q42656 16-378 limits assumed): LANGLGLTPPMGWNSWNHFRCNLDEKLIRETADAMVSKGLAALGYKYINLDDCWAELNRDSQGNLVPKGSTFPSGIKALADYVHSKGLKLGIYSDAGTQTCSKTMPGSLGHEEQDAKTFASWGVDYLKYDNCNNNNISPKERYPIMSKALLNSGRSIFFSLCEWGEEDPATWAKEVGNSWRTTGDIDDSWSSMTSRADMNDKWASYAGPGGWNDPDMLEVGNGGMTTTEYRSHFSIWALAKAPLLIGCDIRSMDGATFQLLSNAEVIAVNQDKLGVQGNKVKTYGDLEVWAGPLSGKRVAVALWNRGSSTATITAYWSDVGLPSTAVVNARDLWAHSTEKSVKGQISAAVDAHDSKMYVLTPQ
The subject of assay [13] is Helix pomatia. As to the kind of experiment: Inhibition of snail beta-mannosidase using p-nitrophenyl glycoside as substrate assessed as release of p-nitrophenol at 1000 uM by spectrometric analysis relative to control.
Assay [14] has as its target T1, Alpha-mannosidase (Canavalia ensiformis) (UniProt C0HJB3).
T1 sequence (whole entry): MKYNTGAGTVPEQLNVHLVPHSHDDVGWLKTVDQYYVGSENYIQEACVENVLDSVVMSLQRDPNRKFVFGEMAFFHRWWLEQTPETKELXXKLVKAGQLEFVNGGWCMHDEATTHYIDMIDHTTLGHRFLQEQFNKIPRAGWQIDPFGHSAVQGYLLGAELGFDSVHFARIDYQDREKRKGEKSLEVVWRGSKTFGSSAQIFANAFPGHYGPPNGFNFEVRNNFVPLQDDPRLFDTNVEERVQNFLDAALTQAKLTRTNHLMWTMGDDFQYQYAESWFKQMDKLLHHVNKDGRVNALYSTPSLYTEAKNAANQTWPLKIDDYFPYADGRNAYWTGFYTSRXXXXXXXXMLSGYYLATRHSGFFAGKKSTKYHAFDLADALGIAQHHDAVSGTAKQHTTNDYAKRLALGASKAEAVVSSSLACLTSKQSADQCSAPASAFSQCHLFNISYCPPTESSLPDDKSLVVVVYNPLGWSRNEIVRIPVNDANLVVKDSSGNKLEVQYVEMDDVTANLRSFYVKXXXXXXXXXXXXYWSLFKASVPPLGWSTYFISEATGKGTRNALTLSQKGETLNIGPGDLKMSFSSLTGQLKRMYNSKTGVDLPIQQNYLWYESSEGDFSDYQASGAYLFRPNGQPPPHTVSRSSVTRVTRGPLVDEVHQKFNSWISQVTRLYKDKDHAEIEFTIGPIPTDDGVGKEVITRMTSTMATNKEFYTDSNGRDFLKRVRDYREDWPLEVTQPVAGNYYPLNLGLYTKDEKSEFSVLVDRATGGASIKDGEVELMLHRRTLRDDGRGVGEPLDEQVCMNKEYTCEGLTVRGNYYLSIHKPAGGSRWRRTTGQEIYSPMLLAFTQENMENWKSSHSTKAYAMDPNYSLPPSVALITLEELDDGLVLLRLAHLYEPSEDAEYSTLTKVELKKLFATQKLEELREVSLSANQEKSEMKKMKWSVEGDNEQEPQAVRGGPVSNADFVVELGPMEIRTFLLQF
Kind of assay: Inhibition of jack bean alpha-mannosidase using p-nitrophenyl glycoside as substrate assessed as release of p-nitrophenol at 1000 uM by spectrometric analysis relative to control.

For assay [15], the species on record is Homo sapiens. Kind of assay: Inhibition of human lysosome beta-glucosidase using p-nitrophenyl glycoside as substrate assessed as release of p-nitrophenol at 1000 uM by spectrometric analysis relative to control.
Assay [16] relates to Penicillium decumbens. As to the kind of experiment: Inhibition of Penicillium decumbens alpha-L-rhamnosidase using p-nitrophenyl glycoside as substrate assessed as release of p-nitrophenol at 1000 uM by spectrometric analysis relative to control.
The subject of assay [17] is Prunus dulcis. Kind of assay: Inhibition of almond Beta-glucosidase using p-nitrophenyl glycoside as substrate assessed as release of p-nitrophenol at 1000 uM by spectrometric analysis relative to control.
The test system of assay [18] is HepG2. Kind of assay: Cytotoxicity activity against human HepG2 cells incubated for 48 hrs by CCK-8 assay. Format: functional, cell-based. The note with it: HepG2, 48 h.
Assay [19] deals with 786-0. Kind of assay: Cytotoxicity activity against human 786-0 cells incubated for 48 hrs by CCK-8 assay. Format: functional, cell-based. The note with it: 786-0, 48 h.
For assay [20], the target named is T2, Alpha-mannosidase (Canavalia ensiformis, UniProt C0HJB3).
T2 sequence (C0HJB3 whole entry): T1 sequence (whole entry)
Kind of assay: Inhibition of jack bean Alpha-mannosidase using p-nitrophenyl glycoside as substrate.

A short description of assay [21]: Inhibition of human liver Alpha-mannosidase.

One may read the inhibition as how much of the control response was suppressed. For `CCCC[C@H]1CCN2C[C@@H](O)[C@@H](O)[C@H]2[C@@H]1O`, in assay [1], the inhibition entry was “inactive”.

In general, IC50 refers to the point on the concentration scale where inhibition reaches its midpoint. Low readings indicate greater potency, high ones weaker potency. `O[C@H]1[C@H]2[C@H](O)C[C@H](F)CN2C[C@H]1O`: the inhibition in assay [2] worked out at 19.1%; in assay [3], 4.1%; in assay [4], 1.7%; in assay [5], 0%; in assay [6] it was 6.8%; in assay [7], 6.6%. For the same molecule, the inhibition was found to be 2.6% in [8]; 11.3% in assay [9]; 6.4% in assay [10]; 0% in [12]; 5% in assay [13]; 0.78% in [14]. Further, the values for the inhibition in assay [15], in assay [16] and in assay [17] were 6%, 14.4% and 2.1%, respectively. Also, the IC50 in assay [11], in [18] and in [19] was greater than 200 µM in each case.

With `OC[C@H]1O[C@H](O[C@H]2[C@H]3[C@H](O)CCCN3C[C@H]2O)[C@H](O)[C@@H](O)[C@@H]1O`, the inhibition result in [1] is “inactive”.

As a reminder, the Ki is a measure of affinity in units of concentration, obtained from inhibition or displacement. Turning to `NCC/N=C1/N[C@H](CO)[C@@H](O)[C@@H](O)[C@@H]1O`, the Ki in [20] came to 0.006 µM; in assay [21], 6 µM.
